# Data: ChEMBL document CHEMBL1201862, “PubChem BioAssay data set” (2004)
#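 Where inhibition never reached the appropriate level, the endpoint shown equals the highest concentration tested. Otherwise, values were interpolated linearly from a five-concentration, 48-hour dose response in 96-well plates. GI50 = concentration required for 50% inhibition of growth.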 Activity calls are given as the source filed them. No stated cut-off is given here; in the data, active = GI50 up to about 1.1 µM and inactive = higher.
# How the values were obtained:
# Assay in all cases: NCI tumour cell line growth inhibition, 48 h
# [1] = tested on: 786-0
# [2] = tested on: A498
# [3] = tested on: A549
# [4] = tested on: ACHN
# [5] = tested on: BT-549
# [6] = tested on: CAKI-1
# [7] = tested on: CCRF-CEM
# [8] = tested on: COLO 205
# [9] = tested on: DU-145
# [10] = tested on: EKVX
# [11] = tested on: HCC 2998
# [12] = tested on: HCT-116
# [13] = tested on: HCT-15
# [14] = tested on: HL-60
# [15] = tested on: HOP-62
# [16] = tested on: HT-29
# [17] = tested on: Hs-578T
# [18] = tested on: IGROV-1
# [19] = tested on: K562
# [20] = tested on: KM12
# [21] = tested on: LOX IMVI
# [22] = tested on: M14
# [23] = tested on: MCF7
# [24] = tested on: MDA-MB-231
# [25] = tested on: MDA-MB-435
# [26] = tested on: MDA-N
# [27] = tested on: MOLT-4
# [28] = tested on: Malme-3M
# [29] = tested on: NCI-H226
# [30] = tested on: NCI-H23
# [31] = tested on: NCI-H460
# [32] = tested on: NCI-H522
# [33] = tested on: NCI/ADR-RES
# [34] = tested on: OVCAR-3
# [35] = tested on: OVCAR-4
# [36] = tested on: OVCAR-5
# [37] = tested on: OVCAR-8
# [38] = tested on: PC-3
# [39] = tested on: RPMI-8226
# [40] = tested on: RXF 393
# [41] = tested on: SF-268
# [42] = tested on: SF-295
# [43] = tested on: SF-539
# [44] = tested on: SK-MEL-28
# [45] = tested on: SK-MEL-2
# [46] = tested on: SK-MEL-5
# [47] = tested on: SK-OV-3
# [48] = tested on: SN12C
# [49] = tested on: SNB-19
# [50] = tested on: SNB-75
# [51] = tested on: SR
# [52] = tested on: SW-620
# [53] = tested on: T47D
# [54] = tested on: TK-10
# [55] = tested on: U-251
# [56] = tested on: UACC-257
# [57] = tested on: UACC-62
# [58] = tested on: UO-31
structure (smiles),measurement,setting,value
COc1ccccc1/C=C/C1=NN(c2cccc(S(=O)(=O)O)c2)C2(C1)C(Cl)C(=O)N2c1nc2ccccc2s1 (stereo not drawn),GI50,[1],37.8 µM (inactive)
same,GI50,[2],> 81.3 µM (inactive)
same,GI50,[3],71.4 µM (inactive)
same,GI50,[4],57.3 µM (inactive)
same,GI50,[5],49.2 µM (inactive)
same,GI50,[6],31.8 µM (inactive)
same,GI50,[7],13.5 µM (inactive)
same,GI50,[8],88.9 µM (inactive)
same,GI50,[9],67 µM (inactive)
same,GI50,[10],43.4 µM (inactive)
same,GI50,[11],> 91 µM (inactive)
same,GI50,[12],61.9 µM (inactive)
same,GI50,[13],57.4 µM
same,GI50,[14],22.1 µM (inactive)
same,GI50,[15],> 100 µM (inactive)
same,GI50,[16],82.4 µM (inactive)
same,GI50,[17],> 100 µM (inactive)
same,GI50,[18],28.5 µM (inactive)
same,GI50,[19],31.4 µM (inactive)
same,GI50,[20],51.6 µM (inactive)
same,GI50,[21],29.7 µM (inactive)
same,GI50,[22],> 75.3 µM (inactive)
same,GI50,[23],40.7 µM (inactive)
same,GI50,[24],> 94.6 µM (inactive)
same,GI50,[25],54.6 µM (inactive)
same,GI50,[26],85.3 µM (inactive)
same,GI50,[27],34 µM (inactive)
same,GI50,[28],> 100 µM (inactive)
same,GI50,[29],28 µM (inactive)
same,GI50,[30],31.9 µM (inactive)
same,GI50,[31],37.8 µM (inactive)
same,GI50,[32],9.04 µM (inactive)
same,GI50,[33],> 100 µM (inactive)
same,GI50,[34],31.5 µM (inactive)
same,GI50,[35],42.2 µM (inactive)
same,GI50,[36],> 100 µM (inactive)
same,GI50,[37],> 51.4 µM (inactive)
same,GI50,[38],76.6 µM (inactive)
same,GI50,[39],19 µM (inactive)
same,GI50,[40],31.3 µM (inactive)
same,GI50,[41],> 100 µM (inactive)
same,GI50,[42],89.3 µM (inactive)
same,GI50,[43],58.2 µM (inactive)
same,GI50,[44],> 100 µM (inactive)
same,GI50,[45],> 100 µM (inactive)
same,GI50,[46],28.6 µM (inactive)
same,GI50,[47],> 100 µM (inactive)
same,GI50,[48],> 84.1 µM (inactive)
same,GI50,[49],> 84.7 µM (inactive)
same,GI50,[50],42.8 µM (inactive)
same,GI50,[51],22.1 µM (inactive)
same,GI50,[52],> 100 µM (inactive)
same,GI50,[53],12.1 µM (inactive)
same,GI50,[54],45.1 µM (inactive)
same,GI50,[55],52.7 µM (inactive)
same,GI50,[56],56.8 µM (inactive)
same,GI50,[57],48.8 µM (inactive)
same,GI50,[58],16.9 µM (inactive)
